Values quoted from earlier work in US8377904B2, “Composition and method for use in cartilage affecting conditions” (Hill's Pet Nutrition, Inc., priority 2004, dated 2013).

Tested on: pain of osteoarthritis

C[S+](CC[C@H](N)C(=O)[O-])C[C@H]1O[C@@H](n2cnc3c(N)ncnc32)[C@H](O)[C@@H]1O (some centres unmarked) [SAMe, S-adenosyl-L methionine]
Outcome compared with non-steroidal anti-inflammatory medication (meta analysis): not associated with statistically significant difference in outcomes | effective size in favor of SAMe compared to a placebo (one randomized clinical trial): 0.20
